The values that follow are results of earlier work, collected in patent US8871712B2, “Somatostatin analogue formulations” (Camurus AB, priority 2005, dated 2014).

The conditions of the data set: in vivo.

As for `C[C@@H](O)[C@@H]1NC(=O)[C@H](CCCCN)NC(=O)[C@@H](Cc2c[nH]c3ccccc23)NC(=O)[C@H](Cc2ccccc2)NC(=O)[C@@H](NC(=O)[C@H](N)Cc2ccccc2)CSSC[C@@H](C(=O)N[C@H](CO)[C@@H](C)O)NC1=O` [Octreotide, D-Phe-Cys-Phe-D-Trp-Lys-Thr-Cys-Thr-ol (2-7 disulphide bridge)], the Terminal half-life result is “around 1.7 hours”.
